Entries after “also recorded” stand apart in the source; their conditions may differ.

For data set [1] the following is noted: qualitative, by solvent; known properties from earlier filings; cited from earlier work.
In data set [2] the test system is foot ulcer induced by acetic acid. Nature of the data set: Foot ulcer induced by acetic acid, normal rats (applied FR136706). The data set is classed as in vivo, rat. The conditions noted are these: for Ulcer area after administration of acetic acid / Swelling score after administration of acetic acid: normal rat, 0.2% in PEG400 applied, average, n=6; for Swelling score after administration of acetic acid: score 0-3. On the procedure:
(§1) The action of the compound (applied) in accordance with this invention on a foot ulcer induced by acetic acid was examined by using normal and diabetic rats. Diabetes was induced in each of a seven-week-old male SD rats by intravenously administrating 60 mg/kg streptozotocin (STZ) to its tail. Fourteen days after the administration of STZ, 20 μl glacial acetic acid was administered into the skin of the left foot instep of each of the diabetic rats and control rats of the same age while anesthetized using ether, thereby causing necrosis at the portion. In the case when the necrotic cuticle of the skin remained two days after the necrosis, the cuticle was removed surgically. Then, the administration of FR136706 (0.2% solution in PEG (polyethylene glycol) 400) was started (50 μl to the affected portion). PEG400 was administered to the control group in a similar way. In a period between two days and 25 days after the administration of acetic acid, swelling scores (0: no swelling, 1: slight swelling, 2: intermediate swelling, 3: significant swelling) was checked visually, and the major axis length and the minor axis length of each ulcer was measured with vernier calipers. The area of each ulcer was calculated from the major axis length and the minor axis length thereof.

Data set [3] has the same test system. Nature of the data set: Diabetic rat foot ulcer curing action (STZ diabetic rats, foot ulcer induced by acetic acid). The class given is in vivo. The conditions noted are these: for Ulcer area after administration of acetic acid / Swelling score after administration of acetic acid: diabetic rat, 0.2% in PEG400 applied, average, n=6; for Swelling score after administration of acetic acid: score 0-3. As for the experimental part: as §1

Where [4] appears, read: normal rats, 0.2% solution in PEG400 applied.
Where [5] appears, read: diabetic rats, 0.2% solution in PEG400 applied.

With “Dipotassium salt of the WS7622A disulfate ester”, the Solubility entry in data set [1] is reported as “soluble: water, methanol; also recorded: insoluble: chloroform, n-hexane”.

As to “Disodium salt of WS7622A disulfate ester”, in data set [1], the Solubility entry was “soluble: water, methanol; also recorded: insoluble: chloroform, n-hexane”.

As to `CC(C)C(NC(=O)[C@@H]1CCCN1C(=O)[C@@H](NC(=O)c1ccc(C(=O)NCC(=O)[O-])cc1)C(C)C)C(=O)C(F)(F)F.[Na+]` (mixture of isomers) [FR136706, Sodium salt of 3(RS)-[[4-(carboxymethylaminocarbonyl)phenylcarbonyl]-L-valyl-L-prolyl]amino-1,1,1-trifluoro-4-methyl-2-oxopentane], the “Ulcer area after administration of acetic acid” value (“Ulcer area after administration” below) in data set [2] (after 2 days) is 58.37 mm^2; in data set [2] (after 8 days), 71.42 mm^2; in data set [2] (after 11 days), 53.21 mm^2; in data set [2] (after 15 days) it was 18.32 mm^2; in data set [2] (after 18 days), 0.69 mm^2; in data set [2] (after 22 days), 0.00 mm^2. The “Ulcer area after administration” value in data set [2] (after 25 days) was 0.00 mm^2; in data set [3] (after 2 days), 69.17 mm^2; in data set [3] (after 8 days) it was 91.77 mm^2; in data set [3] (after 11 days) it was 72.38 mm^2; in data set [3] (after 15 days), 41.00 mm^2; in data set [3] (after 18 days) it was 16.10 mm^2. Further, the “Ulcer area after administration” value amounted to 12.08 mm^2 in data set [3] (after 22 days) and 6.99 mm^2 in data set [3] (after 25 days). Also, the “Swelling score after administration of acetic acid” value (“Swelling score after administration” for short) in data set [2] (after 2 days) came to 2.5; in data set [2] (after 8 days), 2.0; in data set [2] (after 11 days), 1.5; in data set [2] (after 15 days), 1.0; in data set [2] (after 18 days), 0.5; in data set [2] (after 22 days), 0.0. The “Swelling score after administration” value in data set [2] (after 25 days) worked out at 0.0; in data set [3] (after 2 days) it was 2.2; in data set [3] (after 8 days), 2.8; in data set [3] (after 11 days) it was 2.5; in data set [3] (after 15 days) it was 1.5; in data set [3] (after 18 days) it was 1.5. In addition, the “Swelling score after administration” value in data set [3] (after 22 days) came out at 1.2; in data set [3] (after 25 days, & significant at 5% vs PEG400 diabetic group), 0.7. Moreover, the “Effect on contraction of ulcer areas (in words)” value in data set [2] (setting [4]) was “did not act on the normal rats”; in data set [3] (setting [5]), “tended to promote the contraction of the ulcer areas of the diabetic rats”. Besides, the results for the “Effect on recovery of swelling scores (in words)” value in data set [2] (setting [4]) and in data set [3] (setting [5]) were “did not act on the normal rats” and “promoted the recovery of the diabetic rats”, respectively.

(Values after patent publication US20030207432A1, “Remedies for intractable wound” (Fujisawa Pharmaceutical Co., Ltd.,, priority 1999, published 2003).)
